Results reported in patent US9637483B2, “Heterocyclic compound” (TAKEDA PHARMACEUTICAL COMPANY LIMITED, priority 2013, dated 2017).

How the values were obtained:
Format in all cases: biochemical
[1] = biological target: T1, TYK2 (Homo sapiens, UniProt P29597); experiment: TYK2 enzyme inhibition test (LANCE method); details: 1 μM test compound; for inhibition at 1 µM: read-out: TYK2 enzyme inhibitory activity (%, 1 μM)
T1 construct: purchased Invitrogen
Procedure, shortened: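 Recombinant TYK2 (375 ng/mL working solution) with ULight-JAK1 peptide (300 nM working solution) and ATP (30 μM working solution) in HEPES pH 7.5 buffer with MgCl2, EGTA, DTT, Tween20, BSA, reacted 1 h at RT. EDTA-stopped, Eu-anti-phosphotyrosine TR-FRET read at 665 nm; inhibition relative to enzyme-free wells as 100%.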

[2] = biological target: T2, JAK3 (Homo sapiens, UniProt P52333); experiment: JAK3 enzyme inhibition test (LANCE method); details: 1 μM test compound; for inhibition at 1 µM: read-out: JAK3 enzyme inhibitory activity (%, 1 μM)
T2 construct: purchased Invitrogen
T2 sequence (P52333 1-1124): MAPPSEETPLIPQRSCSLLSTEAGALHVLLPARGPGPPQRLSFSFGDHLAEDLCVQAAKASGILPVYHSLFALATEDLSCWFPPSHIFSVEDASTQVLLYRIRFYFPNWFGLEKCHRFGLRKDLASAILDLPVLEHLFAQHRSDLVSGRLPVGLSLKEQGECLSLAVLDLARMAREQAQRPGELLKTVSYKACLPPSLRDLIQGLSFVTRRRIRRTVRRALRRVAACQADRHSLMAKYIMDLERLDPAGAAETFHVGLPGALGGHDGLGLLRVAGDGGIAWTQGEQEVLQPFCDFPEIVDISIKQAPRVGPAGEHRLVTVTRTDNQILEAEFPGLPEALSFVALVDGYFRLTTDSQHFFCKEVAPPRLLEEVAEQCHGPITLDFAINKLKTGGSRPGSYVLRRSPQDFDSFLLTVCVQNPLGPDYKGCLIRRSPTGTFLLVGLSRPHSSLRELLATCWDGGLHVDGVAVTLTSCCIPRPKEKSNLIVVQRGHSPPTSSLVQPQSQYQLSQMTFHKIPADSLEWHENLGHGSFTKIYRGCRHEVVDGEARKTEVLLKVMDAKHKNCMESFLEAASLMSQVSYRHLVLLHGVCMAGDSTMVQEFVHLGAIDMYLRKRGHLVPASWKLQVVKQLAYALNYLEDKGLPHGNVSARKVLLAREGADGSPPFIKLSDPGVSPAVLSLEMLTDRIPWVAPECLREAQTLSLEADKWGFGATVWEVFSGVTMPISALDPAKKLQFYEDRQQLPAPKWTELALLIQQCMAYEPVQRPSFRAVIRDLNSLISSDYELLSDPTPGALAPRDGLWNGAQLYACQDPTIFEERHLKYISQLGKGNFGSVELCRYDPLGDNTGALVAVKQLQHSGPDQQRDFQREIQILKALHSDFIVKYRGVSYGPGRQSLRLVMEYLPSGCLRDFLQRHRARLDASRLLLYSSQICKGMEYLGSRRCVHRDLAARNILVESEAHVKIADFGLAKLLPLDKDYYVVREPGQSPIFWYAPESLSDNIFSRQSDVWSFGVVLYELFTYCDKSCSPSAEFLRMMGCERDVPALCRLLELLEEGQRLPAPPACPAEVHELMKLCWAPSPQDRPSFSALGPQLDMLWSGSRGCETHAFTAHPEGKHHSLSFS
Procedure, shortened: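 Recombinant JAK3 (12 ng/mL solution) with ULight-JAK1 peptide (300 nM solution) and ATP (15 μM solution) in HEPES pH 7.5 buffer, 1 h at room temperature. EDTA stop with Eu-anti-phosphotyrosine antibody; TR-FRET at 665 nm. Inhibition relative to enzyme-free wells as 100%.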

[3] = biological target: T3, JAK1 (Homo sapiens, UniProt P23458); experiment: JAK1 enzyme inhibition test (LANCE method); details: 1 μM test compound; for inhibition at 1 µM: read-out: JAK1 enzyme inhibitory activity (%, 1 μM)
T3 construct: purchased Invitrogen
Procedure, shortened: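 TR-FRET (LANCE) with ULight-JAK1 peptide (300 nM working solution) and ATP (150 μM working solution) in HEPES pH 7.5, MgCl2, EGTA, DTT buffer; 1 h at room temperature. EDTA stop plus Eu-anti-phosphotyrosine antibody, 665 nm read after 1 h. Inhibition relative to enzyme-free wells as 100%.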

[4] = biological target: T4, JAK2 (Homo sapiens, UniProt O60674); experiment: JAK2 enzyme inhibition test (LANCE method); details: 1 μM test compound; for inhibition at 1 µM: read-out: JAK2 enzyme inhibitory activity (%, 1 μM)
T4 construct: purchased Invitrogen
Procedure, shortened: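 Recombinant JAK2 (6 ng/mL solution) phosphorylated ULight-JAK1 peptide (300 nM solution) with ATP (45 μM solution) in pH 7.5 HEPES/MgCl2/DTT buffer for 1 hr at room temperature. After EDTA stop and europium anti-phosphotyrosine antibody for 1 hr, TR-FRET read at 665 nm; inhibition relative to enzyme-free wells as 100%.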

T4 sequence (O60674 whole entry): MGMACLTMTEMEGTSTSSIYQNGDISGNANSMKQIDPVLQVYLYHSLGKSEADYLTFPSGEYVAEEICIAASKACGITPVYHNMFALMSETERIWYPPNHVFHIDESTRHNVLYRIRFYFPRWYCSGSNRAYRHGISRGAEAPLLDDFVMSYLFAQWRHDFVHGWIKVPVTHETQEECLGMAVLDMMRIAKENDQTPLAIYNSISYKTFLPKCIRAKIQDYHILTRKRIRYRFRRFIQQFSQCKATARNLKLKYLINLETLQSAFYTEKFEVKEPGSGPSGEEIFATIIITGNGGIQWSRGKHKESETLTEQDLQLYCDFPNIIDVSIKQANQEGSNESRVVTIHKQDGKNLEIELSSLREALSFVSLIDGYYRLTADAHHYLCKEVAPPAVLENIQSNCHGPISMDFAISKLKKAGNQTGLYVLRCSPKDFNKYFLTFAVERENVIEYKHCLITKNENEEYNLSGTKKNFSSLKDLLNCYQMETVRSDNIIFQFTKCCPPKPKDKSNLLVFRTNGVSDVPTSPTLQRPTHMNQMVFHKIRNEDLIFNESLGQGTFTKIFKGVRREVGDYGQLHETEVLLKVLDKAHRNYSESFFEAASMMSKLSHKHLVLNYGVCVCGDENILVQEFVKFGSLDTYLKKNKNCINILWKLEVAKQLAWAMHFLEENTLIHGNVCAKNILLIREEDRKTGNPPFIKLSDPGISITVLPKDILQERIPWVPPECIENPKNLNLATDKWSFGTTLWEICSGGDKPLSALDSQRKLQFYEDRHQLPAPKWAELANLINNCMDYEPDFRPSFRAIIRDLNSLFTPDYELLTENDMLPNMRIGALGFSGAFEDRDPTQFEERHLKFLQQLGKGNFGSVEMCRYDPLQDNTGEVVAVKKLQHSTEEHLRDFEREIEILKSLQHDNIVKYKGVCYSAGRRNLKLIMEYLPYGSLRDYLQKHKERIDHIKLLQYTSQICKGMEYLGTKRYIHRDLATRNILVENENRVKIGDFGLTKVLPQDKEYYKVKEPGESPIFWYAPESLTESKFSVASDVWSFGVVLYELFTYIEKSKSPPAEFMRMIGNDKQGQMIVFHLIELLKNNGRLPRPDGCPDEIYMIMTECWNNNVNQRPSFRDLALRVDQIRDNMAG
T3 sequence (P23458 whole entry): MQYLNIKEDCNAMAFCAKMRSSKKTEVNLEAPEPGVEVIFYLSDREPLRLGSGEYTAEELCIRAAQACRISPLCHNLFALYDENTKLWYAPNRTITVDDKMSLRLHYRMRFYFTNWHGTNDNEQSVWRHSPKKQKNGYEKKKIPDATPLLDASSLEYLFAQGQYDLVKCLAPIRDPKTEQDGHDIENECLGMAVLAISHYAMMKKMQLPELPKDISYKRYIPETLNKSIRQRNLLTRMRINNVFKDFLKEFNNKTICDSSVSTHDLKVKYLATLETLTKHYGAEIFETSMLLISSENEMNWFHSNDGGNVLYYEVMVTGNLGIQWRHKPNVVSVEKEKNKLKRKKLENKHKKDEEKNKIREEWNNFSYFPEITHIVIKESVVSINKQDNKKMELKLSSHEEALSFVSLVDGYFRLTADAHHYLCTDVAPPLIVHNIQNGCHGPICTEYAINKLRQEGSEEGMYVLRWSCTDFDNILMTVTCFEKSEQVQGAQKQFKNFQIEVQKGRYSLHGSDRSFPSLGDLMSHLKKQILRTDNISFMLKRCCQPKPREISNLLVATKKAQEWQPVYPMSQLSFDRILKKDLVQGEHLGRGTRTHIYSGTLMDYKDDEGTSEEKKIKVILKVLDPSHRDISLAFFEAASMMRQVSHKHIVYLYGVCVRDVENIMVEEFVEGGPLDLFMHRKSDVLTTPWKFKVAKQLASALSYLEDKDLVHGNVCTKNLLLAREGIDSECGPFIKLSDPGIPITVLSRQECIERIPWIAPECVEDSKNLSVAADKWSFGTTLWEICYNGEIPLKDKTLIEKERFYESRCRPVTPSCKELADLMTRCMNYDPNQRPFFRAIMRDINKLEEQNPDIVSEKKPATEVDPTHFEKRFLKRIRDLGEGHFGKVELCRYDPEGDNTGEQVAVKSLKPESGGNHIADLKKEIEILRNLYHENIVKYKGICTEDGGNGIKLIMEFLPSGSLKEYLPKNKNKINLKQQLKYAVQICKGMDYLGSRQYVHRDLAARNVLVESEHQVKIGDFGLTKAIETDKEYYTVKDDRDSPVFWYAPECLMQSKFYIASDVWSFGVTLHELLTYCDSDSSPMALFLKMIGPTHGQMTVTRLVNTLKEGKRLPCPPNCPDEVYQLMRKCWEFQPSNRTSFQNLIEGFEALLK
T1 sequence (P29597 whole entry): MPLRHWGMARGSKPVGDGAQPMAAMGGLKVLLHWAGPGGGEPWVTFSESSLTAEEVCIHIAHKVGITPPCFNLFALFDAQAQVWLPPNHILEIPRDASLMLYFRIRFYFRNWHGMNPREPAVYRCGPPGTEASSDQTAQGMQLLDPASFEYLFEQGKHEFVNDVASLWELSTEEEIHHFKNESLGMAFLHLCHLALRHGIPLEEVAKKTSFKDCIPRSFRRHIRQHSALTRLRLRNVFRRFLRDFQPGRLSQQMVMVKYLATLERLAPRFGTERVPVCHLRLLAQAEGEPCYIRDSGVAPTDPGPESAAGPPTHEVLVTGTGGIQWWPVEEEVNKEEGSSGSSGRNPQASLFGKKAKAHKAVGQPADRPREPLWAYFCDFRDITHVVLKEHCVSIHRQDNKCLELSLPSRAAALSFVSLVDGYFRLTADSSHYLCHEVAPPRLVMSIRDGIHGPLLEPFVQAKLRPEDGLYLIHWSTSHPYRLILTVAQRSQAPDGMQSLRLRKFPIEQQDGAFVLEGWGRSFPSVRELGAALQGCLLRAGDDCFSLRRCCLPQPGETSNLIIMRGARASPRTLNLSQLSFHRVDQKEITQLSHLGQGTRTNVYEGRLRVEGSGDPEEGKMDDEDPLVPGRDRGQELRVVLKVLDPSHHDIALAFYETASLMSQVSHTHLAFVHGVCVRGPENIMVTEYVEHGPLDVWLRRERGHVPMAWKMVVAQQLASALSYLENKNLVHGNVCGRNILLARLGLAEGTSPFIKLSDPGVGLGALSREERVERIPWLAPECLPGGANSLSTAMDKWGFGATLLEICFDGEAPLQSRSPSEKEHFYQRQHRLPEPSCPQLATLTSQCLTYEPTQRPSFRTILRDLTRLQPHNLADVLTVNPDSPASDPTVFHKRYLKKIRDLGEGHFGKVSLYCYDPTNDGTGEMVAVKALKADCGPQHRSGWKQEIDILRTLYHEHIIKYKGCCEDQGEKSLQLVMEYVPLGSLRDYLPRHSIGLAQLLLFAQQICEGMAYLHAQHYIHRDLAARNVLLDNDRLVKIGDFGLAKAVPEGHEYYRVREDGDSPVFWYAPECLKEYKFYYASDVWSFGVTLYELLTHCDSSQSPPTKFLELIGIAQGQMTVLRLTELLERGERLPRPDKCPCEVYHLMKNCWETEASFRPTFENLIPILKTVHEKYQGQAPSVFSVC

SMILES	inhibition at 1 µM [1] [%]	inhibition at 1 µM [2] [%]	inhibition at 1 µM [3] [%]	inhibition at 1 µM [4] [%]	TYK2 enzyme inhibitory activity (%, 1 μM) [1] [%]	JAK3 enzyme inhibitory activity (%, 1 μM) [2] [%]	JAK1 enzyme inhibitory activity (%, 1 μM) [3] [%]	JAK2 enzyme inhibitory activity (%, 1 μM) [4] [%]
Cn1nc(-c2cn(C(C3CC3)C(F)(F)F)c(=O)c3c(N)n[nH]c23)cc1N1CCOCC1 (stereo not drawn) [Example 83, 3-amino-5-(1-cyclopropyl-2,2,2-trifluoroethyl)-7-(1-methyl-5-(morpholin-4-yl)-1H-pyrazol-3-yl)-1,5-dihydro-4H-pyrazolo[4,3-c]pyridin-4-one]	100	100	99	100				
CCOC(=O)C(C(C)C)n1cc(-c2cc(N3CCOCC3)n(C)n2)c2[nH]nc(N)c2c1=O (stereo not drawn) [Example 84, ethyl 2-(3-amino-7-(1-methyl-5-(morpholin-4-yl)-1H-pyrazol-3-yl)-4-oxo-1,4-dihydro-5H-pyrazolo[4,3-c]pyridin-5-yl)-3-methylbutanoate]	83	97	84	87				
CC(C)C(C(N)=O)n1cc(-c2cc(N3CCOCC3)n(C)n2)c2[nH]nc(N)c2c1=O (stereo not drawn) [Example 85, 2-(3-amino-7-(1-methyl-5-(morpholin-4-yl)-1H-pyrazol-3-yl)-4-oxo-1,4-dihydro-5H-pyrazolo[4,3-c]pyridin-5-yl)-3-methylbutanamide]	89	89	68	86				
CC(C)[C@H](C)n1cc(-c2cc(C(C)(C)O)n(C)n2)c2[nH]nc(N)c2c1=O.Cl [Example 86, 3-amino-7-(5-(2-hydroxypropan-2-yl)-1-methyl-1H-pyrazol-3-yl)-5-((2S)-3-methylbutan-2-yl)-1,5-dihydro-4H-pyrazolo[4,3-c]pyridin-4-one hydrochloride]					100	99	98	98
Cn1nc(-c2cn(C(C3CC3)C3CC3)c(=O)c3c(N)n[nH]c23)cc1N1CCS(=O)(=O)C(C)(C)C1 [Example 88, 3-amino-5-(dicyclopropylmethyl)-7-(5-(2,2-dimethyl-1,1-dioxidothiomorpholin-4-yl)-1-methyl-1H-pyrazol-3-yl)-1,5-dihydro-4H-pyrazolo[4,3-c]pyridin-4-one]	99	99	99	100				
COC1(c2cc(-c3cn(C(C4CC4)C4CC4)c(=O)c4c(N)n[nH]c34)nn2C)CN(C(=O)C(C)C)C1 [Example 89, 3-amino-5-(dicyclopropylmethyl)-7-(5-(1-isobutyryl-3-methoxyazetidin-3-yl)-1-methyl-1H-pyrazol-3-yl)-1,5-dihydro-4H-pyrazolo[4,3-c]pyridin-4-one]	100	99	97	99				
COC1(c2cc(-c3cn(C(C4CC4)C4CC4)c(=O)c4c(N)n[nH]c34)nn2C)CN(S(=O)(=O)C(C)C)C1 [Example 90, 3-amino-5-(dicyclopropylmethyl)-7-(5-(1-(isopropylsulfonyl)-3-methoxyazetidin-3-yl)-1-methyl-1H-pyrazol-3-yl)-1,5-dihydro-4H-pyrazolo[4,3-c]pyridin-4-one]	100	99	96	99				
C[C@H](C1CC1)n1cc(-c2cc(C(C)(C)O)n(C)n2)c2[nH]nc(N)c2c1=O [Example 91, 3-amino-5-((1R)-1-cyclopropylethyl)-7-(5-(2-hydroxypropan-2-yl)-1-methyl-1H-pyrazol-3-yl)-1,5-dihydro-4H-pyrazolo[4,3-c]pyridin-4-one]	99	97	96	88				
CC(C)N1CCN(c2cc(-c3cn([C@@H](C)C4CC4)c(=O)c4c(N)n[nH]c34)nn2C)CC1=O [Example 92, 3-amino-5-((1S)-1-cyclopropylethyl)-7-(5-(4-isopropyl-3-oxopiperazin-1-yl)-1-methyl-1H-pyrazol-3-yl)-1,5-dihydro-4H-pyrazolo[4,3-c]pyridin-4-one]	99	99	100	100				
C[C@@H](C1CC1)n1cc(-c2cc(N3CCC(O)(C(F)(F)F)CC3)n(C)n2)c2[nH]nc(N)c2c1=O [Example 94, 3-amino-5-((1S)-1-cyclopropylethyl)-7-(5-(4-hydroxy-4-(trifluoromethyl)piperidin-1-yl)-1-methyl-1H-pyrazol-3-yl)-1,5-dihydro-4H-pyrazolo[4,3-c]pyridin-4-one]	99	100	100	100				
C[C@@H](C1CC1)n1cc(-c2cc(N3CCS(=O)(=O)C(C)(C)C3)n(C)n2)c2[nH]nc(N)c2c1=O [Example 95, 3-amino-5-((1S)-1-cyclopropylethyl)-7-(5-(2,2-dimethyl-1,1-dioxidothiomorpholin-4-yl)-1-methyl-1H-pyrazol-3-yl)-1,5-dihydro-4H-pyrazolo[4,3-c]pyridin-4-one]	99	100	100	100				
C[C@@H](C1CC1)n1cc(-c2cc(N3CCS(=O)(=O)CC3)n(C)n2)c2[nH]nc(N)c2c1=O [Example 96, 3-amino-5-((1S)-1-cyclopropylethyl)-7-(5-(1,1-dioxidothiomorpholin-4-yl)-1-methyl-1H-pyrazol-3-yl)-1,5-dihydro-4H-pyrazolo[4,3-c]pyridin-4-one]	100	100	99	100				
COC1(c2cc(-c3cn([C@@H](C)C4CC4)c(=O)c4c(N)n[nH]c34)nn2C)CN(C(=O)C(C)C)C1 [Example 97, 3-amino-5-((1S)-1-cyclopropylethyl)-7-(5-(1-isobutyryl-3-methoxyazetidin-3-yl)-1-methyl-1H-pyrazol-3-yl)-1,5-dihydro-4H-pyrazolo[4,3-c]pyridin-4-one]	100	99	97	99				
COC1(c2cc(-c3cn([C@@H](C)C4CC4)c(=O)c4c(N)n[nH]c34)nn2C)CN(S(=O)(=O)C(C)C)C1 [Example 98, 3-amino-5-((1S)-1-cyclopropylethyl)-7-(5-(1-(isopropylsulfonyl)-3-methoxyazetidin-3-yl)-1-methyl-1H-pyrazol-3-yl)-1,5-dihydro-4H-pyrazolo[4,3-c]pyridin-4-one]	100	100	97	100				
CC(n1cc(-c2cc(N3CCOCC3)n(C)n2)c2[nH]nc(N)c2c1=O)C(C)(C)O (stereo not drawn) [Example 99, 3-amino-5-(3-hydroxy-3-methylbutan-2-yl)-7-(1-methyl-5-(morpholin-4-yl)-1H-pyrazol-3-yl)-1,5-dihydro-4H-pyrazolo[4,3-c]pyridin-4-one]	99	97	83	85				
